The target of the test is T1, FXR ligand binding domain (Homo sapiens, UniProt Q96RI1).
T1 construct: made in house; host or cells: E. coli BL21 (pLysS)
T1 sequence (Q96RI1 193-472 isoform Q96RI1-2): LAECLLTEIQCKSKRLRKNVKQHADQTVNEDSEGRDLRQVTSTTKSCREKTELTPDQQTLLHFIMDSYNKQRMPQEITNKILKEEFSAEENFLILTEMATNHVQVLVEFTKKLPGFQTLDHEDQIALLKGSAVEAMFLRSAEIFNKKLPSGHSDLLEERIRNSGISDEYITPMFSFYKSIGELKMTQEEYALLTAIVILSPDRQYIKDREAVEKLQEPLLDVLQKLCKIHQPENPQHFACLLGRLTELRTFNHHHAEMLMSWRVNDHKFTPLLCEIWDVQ
Briefly: Radioligand Binding Assay (scintillation proximity radioligand displacement). The settings on record: GST-FXR LBD fusion protein on SPA beads, test compound 6×10^−9 M to 2.5×10^−5 M. Put shortly: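 GST-fused human FXR LBD (aa 193-473, E. coli-expressed, 40 nM) was bound to glutathione SPA beads in 50 mM Hepes pH 7.4, 10 mM NaCl, 5 mM MgCl2, 0.01% CHAPS. Displacement of radioligand (e.g. 20 nM) was measured over 6×10^−9 to 2.5×10^−5 M compound, and IC50 calculated.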
(In a scintillation proximity assay essentially only radioactivity close to the scintillant gives light.)
`Fc1cc(-c2nnn[nH]2)ccc1COc1cc(Cl)ccc1-c1nc2ccccc2n1CC1CCCCC1` [Example 39, 2-{4-Chloro-2-[2-fluoro-4-(1H-tetrazol-5-yl)-benzyloxy]-phenyl}-1-cyclohexylmethyl-1H-benzoimidazole] registered an IC50 of 0.03 µM.
In the case of `Fc1cc2nc(-c3ccc(Cl)cc3OCC3CCCC3)n(Cc3ccc(-c4nnn[nH]4)cc3F)c2cc1F` [Example 70, 2-(4-Chloro-2-cyclopentylmethoxy-phenyl)-5,6-difluoro-1-[2-fluoro-4-(1H-tetrazol-5-yl)-benzyl]-1H-benzoimidazole], the IC50 stood at 0.01 µM.
With `Fc1cc2nc(-c3ccc(Cl)cc3OCC3CC3)n(CC3CCCCC3)c2cc1F` [Example 21, 2-(4-Chloro-2-cyclopropylmethoxy-phenyl)-1-cyclohexylmethyl-5,6-difluoro-1H-benzoimidazole], the IC50 was 0.3 µM. Compared with the last molecule, the IC50 is about 30-fold higher.
The value for `O=C(O)c1ccc(CCc2cc(Cl)ccc2-c2nc3ccccc3n2CC2CCCCC2)cc1` [Example 75, 4-{2-[5-Chloro-2-(1-cyclohexylmethyl-1H-benzoimidazol-2-yl)-phenyl]-ethyl}-benzoic acid] was 0.03 µM; that for `O=C(O)c1ccc(COc2ncccc2-c2nc3cc(F)c(F)cc3n2Cc2ccccc2)cc1` [Example 9, 4-[3-(1-Benzyl-5,6-difluoro-1H-benzoimidazol-2-yl)-pyridin-2-yloxymethyl]-benzoic acid] was 10.5 µM; that for `c1ccc(-c2nc3ccccc3n2CCC2CCCCC2)c(CCc2ccc(-c3nnn[nH]3)cc2)c1` [Example 83, 1-(2-Cyclohexyl-ethyl)-2-(2-{2-[4-(1H-tetrazol-5-yl)-phenyl]-ethyl}-phenyl)-1H-benzoimidazole] was 0.01 µM.
Regarding `CCCCCn1c(-c2ccc(Cl)cc2OCc2ccc(-c3nnn[nH]3)cc2F)nc2cc(F)c(F)cc21` [Example 44, 2-{4-Chloro-2-[2-fluoro-4-(1H-tetrazol-5-yl)-benzyloxy]-phenyl}-5,6-difluoro-1-pentyl-1H-benzoimidazole], the IC50 amounted to 0.1 µM.
Molecule `Fc1cc2nc(-c3cccnc3OCC3CC3)n(CC3CCCCC3)c2cc1F` [Example 2, 1-Cyclohexylmethyl-2-(2-cyclopropylmethoxy-pyridin-3-yl)-5,6-difluoro-1H-benzoimidazole] gave an IC50 of 2.9 µM. This IC50 is about 29-fold higher than that of the molecule before.
The molecule `O=C(O)c1cccc(Cn2c(-c3ccc(Cl)cc3OCC3CCCC3)nc3cc(F)c(F)cc32)c1` [Example 61, 3-[2-(4-Chloro-2-cyclopentylmethoxy-phenyl)-5,6-difluoro-benzoimidazol-1-ylmethyl]-benzoic acid] returned an IC50 of 0.5 µM. This IC50 is about 5.8-fold lower than that of the molecule before.
Take `O=C(O)c1ccc(COc2ncccc2-c2nc3cc(F)c(F)cc3n2CC2CCCCC2)cc1` [Example 4, 4-[3-(1-Cyclohexylmethyl-5,6-difluoro-1H-benzoimidazol-2-yl)-pyridin-2-yloxymethyl]-benzoic acid]: the IC50 came to 5.8 µM.
Molecule `Fc1cc2nc(-c3ccccc3COc3ccc(-c4nnn[nH]4)c(F)c3)n(CC3CCCCC3)c2cc1F` [Example 41, 1-Cyclohexylmethyl-5,6-difluoro-2-{2-[3-fluoro-4-(1H-tetrazol-5-yl)-phenoxymethyl]-phenyl}-1H-benzoimidazole] had an IC50 of 0.2 µM.
The molecule `Fc1cc2nc(-c3ccc(Cl)cc3OCC3CC3)n(Cc3cccc(Cl)c3)c2cc1F` [Example 55, 1-(3-Chloro-benzyl)-2-(4-chloro-2-cyclopropylmethoxy-phenyl)-5,6-difluoro-1H-benzoimidazole] came in with an IC50 of 2.6 µM. Compared with the last molecule, the IC50 is about 13-fold higher.
The same measure for `O=C(O)COc1ccc(Cn2c(-c3ccc(Cl)cc3OCC3CCCC3)nc3cc(F)c(F)cc32)cc1` [Example 64, {4-[2-(4-Chloro-2-cyclopentylmethoxy-phenyl)-5,6-difluoro-benzoimidazol-1-ylmethyl]-phenoxy}-acetic acid]: 0.2 µM.
With `Fc1cc2nc(-c3ccccc3OCC3CCCC3)n(Cc3ccc(-c4nnn[nH]4)cc3F)c2cc1F` [Example 94, 2-(2-Cyclopentylmethoxy-phenyl)-5,6-difluoro-1-[2-fluoro-4-(1H-tetrazol-5-yl)-benzyl]-1H-benzoimidazole], the IC50 stood at 0.04 µM. Against the preceding molecule, the IC50 is about 5-fold lower.
In turn, `Fc1cc2nc(-c3ccc(Cl)cc3OCC3CCC3)n(Cc3ccc(-c4nnn[nH]4)cc3F)c2cc1F` [Example 92, 2-(4-Chloro-2-cyclobutylmethoxy-phenyl)-5,6-difluoro-1-[2-fluoro-4-(1H-tetrazol-5-yl)-benzyl]-1H-benzoimidazole] showed an IC50 of 0.02 µM.
The value for `Fc1cc2nc(-c3ccc(Cl)cc3CCc3ccc(-c4nnn[nH]4)cc3)n(CC3CCCCC3)c2cc1F` [Example 73, 2-(4-Chloro-2-{2-[4-(1H-tetrazol-5-yl)-phenyl]-ethyl}-phenyl)-1-cyclohexylmethyl-5,6-difluoro-1H-benzoimidazole] was 0.01 µM; that for `O=C(O)COc1ccc(COc2ncccc2-c2nc3cc(F)c(F)cc3n2Cc2cccc(Cl)c2)cc1` [Example 15, (4-{3-[1-(3-Chloro-benzyl)-5,6-difluoro-1H-benzoimidazol-2-yl]-pyridin-2-yloxymethyl}-phenoxy)-acetic acid] was 2.6 µM.
`COc1cc(-c2nnn[nH]2)ccc1COc1cc(Cl)ccc1-c1nc2cc(F)c(F)cc2n1CC1CCCCC1` [Example 35, 2-{4-Chloro-2-[2-methoxy-4-(1H-tetrazol-5-yl)-benzyloxy]-phenyl}-1-cyclohexylmethyl-5,6-difluoro-1H-benzoimidazole]: the IC50 came out at 0.05 µM.
Take `Fc1cc(-c2nnn[nH]2)ccc1Cn1c(-c2ccc(Cl)cc2OCC2CCCC2)nc2ccccc21` [Example 95, 2-(4-Chloro-2-cyclopentylmethoxy-phenyl)-1-[2-fluoro-4-(1H-tetrazol-5-yl)-benzyl]-1H-benzoimidazole]: the IC50 worked out at 0.01 µM.
The value for `O=C(O)c1ccc(Cn2c(-c3ccc(Cl)cc3OCC3CCCC3)nc3cc(F)c(F)cc32)cc1` [Example 62, 4-[2-(4-Chloro-2-cyclopentylmethoxy-phenyl)-5,6-difluoro-benzoimidazol-1-ylmethyl]-benzoic acid] was 0.4 µM; that for `O=C(O)CCCCCOc1cc(Cl)ccc1-c1nc2cc(F)c(F)cc2n1CC1CCCCC1` [Example 26, 6-[5-Chloro-2-(1-cyclohexylmethyl-5,6-difluoro-1H-benzoimidazol-2-yl)-phenoxy]-hexanoic acid] was 2.1 µM; that for `Fc1cc2nc(-c3cccnc3OCC3CCCC3)n(Cc3ccccc3)c2cc1F` [Example 7, 1-Benzyl-2-(2-cyclopentylmethoxy-pyridin-3-yl)-5,6-difluoro-1H-benzoimidazole] was 3.8 µM.
For the molecule `O=C(O)COc1ccc(COc2cc(Cl)ccc2-c2nc3cc(F)c(F)cc3n2Cc2ccccc2)cc1` [Example 52, {4-[2-(1-Benzyl-5,6-difluoro-1H-benzoimidazol-2-yl)-5-chloro-phenoxymethyl]-phenoxy}-acetic acid], the IC50 was 0.8 µM.
The value for `O=C(O)CCc1ccc(Cn2c(-c3ccc(Cl)cc3OCc3ccccc3Cl)nc3cc(F)c(F)cc32)cc1` [Example 58, 3-(4-{2-[4-Chloro-2-(2-chloro-benzyloxy)-phenyl]-5,6-difluoro-benzoimidazol-1-ylmethyl}-phenyl)-propionic acid] was 0.03 µM; that for `O=C(O)COc1ccc(COc2cc(Cl)ccc2-c2nc3cc(F)c(F)cc3n2Cc2cccc(Cl)c2)cc1` [Example 57, (4-{5-Chloro-2-[1-(3-chloro-benzyl)-5,6-difluoro-1H-benzoimidazol-2-yl]-phenoxymethyl}-phenoxy)-acetic acid] was 0.2 µM.
For the molecule `Fc1cc2nc(-c3cccnc3OCC3CC3)n(Cc3cccc(Cl)c3)c2cc1F` [Example 13, 1-(3-Chloro-benzyl)-2-(2-cyclopropylmethoxy-pyridin-3-yl)-5,6-difluoro-1H-benzoimidazole], the IC50 was found to be 3.6 µM. Compared with the last molecule, the IC50 is about 18-fold higher.
Turning to `O=C(O)CCc1ccc(Cn2c(-c3ccc(Cl)cc3OCC3CCCC3)nc3cc(F)c(F)cc32)cc1` [Example 59, 3-{4-[2-(4-Chloro-2-cyclopentylmethoxy-phenyl)-5,6-difluoro-benzoimidazol-1-ylmethyl]-phenyl}-propionic acid], the IC50 was 0.3 µM. Compared with the last molecule, the IC50 is about 12-fold lower.
For the molecule `O=C(O)COc1ccc(COc2cc(Cl)ccc2-c2nc3cc(F)c(F)cc3n2CC2CCCCC2)cc1` [Example 25, {4-[5-Chloro-2-(1-cyclohexylmethyl-5,6-difluoro-1H-benzoimidazol-2-yl)-phenoxymethyl]-phenoxy}-acetic acid], the IC50 came out at 0.1 µM.
The same measure for `O=C(O)c1ccc(COc2cc(Cl)ccc2-c2nc3cc(F)c(F)cc3n2CC2CCCCC2)cc1` [Example 23, 4-[5-Chloro-2-(1-cyclohexylmethyl-5,6-difluoro-1H-benzoimidazol-2-yl)-phenoxymethyl]-benzoic acid]: 0.2 µM; for `Fc1cc2nc(-c3ccc(Cl)cc3OCC3CCCC3)n(CC3CCCCC3)c2cc1F` [Example 20, 2-(4-Chloro-2-cyclopentylmethoxy-phenyl)-1-cyclohexylmethyl-5,6-difluoro-1H-benzoimidazole]: 0.2 µM.
Regarding `O=C(O)c1cccc(COc2cc(Cl)ccc2-c2nc3cc(F)c(F)cc3n2CC2CCCCC2)c1` [Example 24, 3-[5-Chloro-2-(1-cyclohexylmethyl-5,6-difluoro-1H-benzoimidazol-2-yl)-phenoxymethyl]-benzoic acid], the IC50 is 0.7 µM. This IC50 is about 3.5-fold higher than that of the molecule before.

The term IC50 denotes the concentration that gives 50% inhibition.
